The structures appear in SMILES notation.

B-Raf (V600E)-kinase, sequence (P15056 whole entry V600E): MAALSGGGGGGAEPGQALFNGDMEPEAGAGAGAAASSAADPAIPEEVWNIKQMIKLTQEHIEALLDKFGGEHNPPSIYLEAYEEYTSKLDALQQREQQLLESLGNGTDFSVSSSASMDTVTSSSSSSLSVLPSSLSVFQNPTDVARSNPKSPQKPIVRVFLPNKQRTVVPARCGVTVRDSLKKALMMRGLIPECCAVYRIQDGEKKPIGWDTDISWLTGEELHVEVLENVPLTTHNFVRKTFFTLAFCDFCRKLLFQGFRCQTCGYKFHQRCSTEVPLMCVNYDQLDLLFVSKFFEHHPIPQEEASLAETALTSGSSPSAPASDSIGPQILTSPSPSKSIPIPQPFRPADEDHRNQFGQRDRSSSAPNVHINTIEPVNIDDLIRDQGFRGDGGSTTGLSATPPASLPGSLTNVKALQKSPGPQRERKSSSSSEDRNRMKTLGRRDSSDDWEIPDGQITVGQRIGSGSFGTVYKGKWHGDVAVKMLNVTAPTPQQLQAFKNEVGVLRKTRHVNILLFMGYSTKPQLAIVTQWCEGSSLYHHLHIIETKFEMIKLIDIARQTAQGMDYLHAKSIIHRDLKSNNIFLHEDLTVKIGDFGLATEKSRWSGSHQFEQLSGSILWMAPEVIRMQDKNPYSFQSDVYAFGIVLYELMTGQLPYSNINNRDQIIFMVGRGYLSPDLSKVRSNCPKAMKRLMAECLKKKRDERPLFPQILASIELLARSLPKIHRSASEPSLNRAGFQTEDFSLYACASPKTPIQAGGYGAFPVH

This assay concerns the target B-Raf (V600E)-kinase (Homo sapiens, UniProt P15056, V600E). Briefly: Kinase test B-Raf (V600E). The format is biochemical. To be noted: compound concentration 2 μM; 100% = no inhibition, 0% = total inhibition; read-out: % CTL (residual activity of the enzyme relative to DMSO control). The method in brief:
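Kinase preincubated with compound (typically 2 μM to 0.119 nM or 0.017 nM, 5% DMSO) 1 h at RT, then reacted 60 min at RT with 250 μM ATP and biotinylated MEK1. Phospho-MEK (Ser217/221) captured on streptavidin, detected by europium time-resolved fluorescence; IC50 from dose-response curves.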
As for `Cc1ncc(C(=O)Nc2cc(C(F)(F)F)cc(N3CCOCC3)c2C)cc1-n1cc(-c2cnn(C)c2C)nn1` [Example I-122], the remaining activity at 2 µM turned out to be 1.8%.
With `Cc1ncc(C(=O)Nc2cc(CN3CCCC3)cc(C(F)(F)F)c2)cc1-n1cc(-c2cncs2)nn1` [Example I-123] the figure was 5.8%; with `Cc1ncc(C(=O)Nc2cc(OC(F)(F)F)cc(N3CCN(C)CC3)c2)cc1-n1cc(-c2cncnc2)nn1` [Example I-124], 1.9%.
The figure for `Cc1ncc(C(=O)Nc2cc(C3=CCN(C)CC3)c(C)c(C(F)(F)F)c2)cc1-n1cc(-c2cnn(C)c2C)nn1` [Example I-125] is 1.2%.
Take `Cc1ncc(C(=O)Nc2cc(C3=CCNCC3)c(C)c(C(F)(F)F)c2)cc1-n1cc(-c2cnn(C)c2C)nn1` [Example I-126]: the remaining activity at 2 µM came to 5.7%.
With `Cc1ncc(C(=O)Nc2cc(CN3CCCC3)c(Cl)c(C(F)(F)F)c2)cc1-n1cc(-c2cncs2)nn1` [Example I-127] the figure was 6.1%.
With `Cc1ncc(C(=O)Nc2cc(N3CCN(C)CC3)c(F)c(C(F)(F)F)c2)cc1-n1cc(-c2cncs2)nn1` [Example I-128] the figure was 5.3%; with `Cc1ncc(C(=O)Nc2cc(CN3CCCC3)c(C)c(C(F)(F)F)c2)cc1-n1cc(-c2cnn(C)c2C)nn1` [Example I-130], 2.2%.
With `Cc1ncc(C(=O)Nc2cc(CNCC(C)C)c(C)c(C(F)(F)F)c2)cc1-n1cc(-c2cnn(C)c2C)nn1` [Example I-131], the remaining activity at 2 µM is 2.2%.
The figure for `Cc1ncc(C(=O)Nc2cc(CNC(C)C)c(C)c(C(F)(F)F)c2)cc1-n1cc(-c2cnn(C)c2C)nn1` [Example I-132] is 1%.
The figure for `CCN1CCN(c2cncc(-c3cn(-c4cc(C(=O)Nc5cc(C(C)(C)C)on5)cnc4C)nn3)c2)CC1` [Example I-134] is 2.6%; for `COCCN1CCN(c2cncc(-c3cn(-c4cc(C(=O)Nc5cc(C(C)(C)C)on5)cnc4C)nn3)c2)CC1` [Example I-135] it is 2.6%.
With `Cc1ncc(C(=O)Nc2cc(C(C)(C)C)on2)cc1-n1cc(-c2cncc(N3CCC(N4CCOCC4)CC3)c2)nn1` [Example I-136] the figure was 2.5%; with `Cc1ncc(C(=O)Nc2cc(C(C)(C)C)on2)cc1-n1cc(-c2cncc(N3CCN(CC4CC4)CC3)c2)nn1` [Example I-137], 2.5%.
On to `Cc1ncc(C(=O)Nc2cc(C(C)(C)C)on2)cc1-n1cc(-c2cncc(NCCN(C)C)c2)nn1` [Example I-138], for which the remaining activity at 2 µM was 2.5%.
With `Cc1ncc(C(=O)Nc2cc(C(C)(C)C)on2)cc1-n1cc(-c2cncc(N3CCC(N4CCCCC4)CC3)c2)nn1` [Example I-139] the figure was 2.5%; with `Cc1ncc(C(=O)Nc2cc(C(C)(C)C)on2)cc1-n1cc(-c2cncc(N3CCN(C(C)C)CC3)c2)nn1` [Example I-140], 2.2%; with `Cc1ncc(C(=O)Nc2cc(C(C)(C)C)on2)cc1-n1cc(-c2cncc(N(C)CCN(C)C)c2)nn1` [Example I-141], 2.1%.
In the case of `Cc1ncc(C(=O)Nc2ccc(Cl)c(C(F)(F)F)c2)cc1-n1cc(-c2cncc(N3CCN(C)CC3)c2)nn1` [Example I-142], the remaining activity at 2 µM came to 1.5%.
With `Cc1ncc(C(=O)Nc2cc(C(C)(C)C)on2)cc1-n1cc(-c2cncc(N3CC[C@@H](N(C)C)C3)c2)nn1` [Example I-143] the figure was 2.2%; with `Cc1ncc(C(=O)Nc2cc(C(F)(F)F)ccn2)cc1-n1cc(-c2cncc(N3CCN(C)CC3)c2)nn1` [Example I-144], 1.9%.
With `Cc1ncc(C(=O)Nc2cc(C(C)(C)C)on2)cc1-n1cc(-c2cncc(N3CC[C@H](N(C)C)C3)c2)nn1` [Example I-145] the figure was 2.2%.
With `COc1ccc(NC(=O)c2cnc(C)c(-n3cc(-c4cncc(N5CCN(C)CC5)c4)nn3)c2)cc1C(F)(F)F` [Example I-146] the figure was 2%; with `Cc1ncc(C(=O)Nc2ccc(Cl)c(C(C)(C)C)c2)cc1-n1cc(-c2cncc(N3CCN(C)CC3)c2)nn1` [Example I-147], 3.1%; with `Cc1ncc(C(=O)Nc2nc(C(C)(C)C)cs2)cc1-n1cc(-c2cncc(N3CCN(C(C)C)CC3)c2)nn1` [Example I-148], 4%.
In the case of `Cc1ncc(C(=O)Nc2cn(C(C)C)nn2)cc1-n1cc(-c2cncc(N3CCN(C(C)C)CC3)c2)nn1` [Example I-149], the remaining activity at 2 µM worked out at 2.1%.
With `Cc1ncc(C(=O)Nc2cnn(C(C)C)c2)cc1-n1cc(-c2cncc(N3CCN(C(C)C)CC3)c2)nn1` [Example I-150] the figure was 4.1%; with `Cc1ncc(C(=O)Nc2cnn(C(C)C)c2C)cc1-n1cc(-c2cncc(N3CCN(C(C)C)CC3)c2)nn1` [Example I-151], 4.5%.
As to `Cc1ncc(C(=O)Nc2cc(C(F)(F)F)ccn2)cc1-n1cc(-c2cncc(N3CCN(C(C)C)CC3)c2)nn1` [Example I-152], the remaining activity at 2 µM was 2.4%.
With `Cc1ncc(C(=O)Nc2nnc(C(C)(C)C)s2)cc1-n1cc(-c2cncc(N3CCN(C(C)C)CC3)c2)nn1` [Example I-153] the figure was 1.8%.
As to `Cc1ncc(C(=O)Nc2cc(C(C)C)no2)cc1-n1cc(-c2cncc(N3CCN(C(C)C)CC3)c2)nn1` [Example I-154], the remaining activity at 2 µM was 2.9%.
The figure for `Cc1ncc(C(=O)Nc2cc(C(C)(C)C)ncn2)cc1-n1cc(-c2cncc(N3CCN(C(C)C)CC3)c2)nn1` [Example I-155] is 2.6%.
With `CCCN1CCN(c2cncc(-c3cn(-c4cc(C(=O)Nc5cc(C(C)(C)C)on5)cnc4C)nn3)c2)CC1` [Example I-164] the figure was 9.9%; with `Cc1ncc(C(=O)Nc2cc(C(C)(C)C)on2)cc1-n1cc(-c2cncc(N3CCN(C4CC4)CC3)c2)nn1` [Example I-165], 8.9%.
The figure for `Cc1ncc(C(=O)Nc2cc(C(C)(C)C)on2)cc1-n1cc(-c2cncc(N3CCN(C4CCCC4)CC3)c2)nn1` [Example I-166] is 7.9%.
Regarding `Cc1ncc(C(=O)Nc2cc(C(C)(C)C)on2)cc1-n1cc(-c2cncc(N3CCN(C(C)(C)C)CC3)c2)nn1` [Example I-167], the remaining activity at 2 µM was found to be 7.9%.
The figure for `Cc1ncc(C(=O)Nc2cc(C(C)(C)C)on2)cc1-n1cc(-c2cncc(N3CCN(CCCO)CC3)c2)nn1` [Example I-168] is 9.8%; for `COCCCN1CCN(c2cncc(-c3cn(-c4cc(C(=O)Nc5cc(C(C)(C)C)on5)cnc4C)nn3)c2)CC1` [Example I-169] it is 8.4%; for `CCOCCN1CCN(c2cncc(-c3cn(-c4cc(C(=O)Nc5cc(C(C)(C)C)on5)cnc4C)nn3)c2)CC1` [Example I-170] it is 7.5%.
With `Cc1ncc(C(=O)Nc2cc(C(C)(C)C)on2)cc1-n1cc(-c2cncc(N3CCN(CC(C)C)CC3)c2)nn1` [Example I-171] the figure was 7.7%.
The figure for `CCCCN1CCN(c2cncc(-c3cn(-c4cc(C(=O)Nc5cc(C(C)(C)C)on5)cnc4C)nn3)c2)CC1` [Example I-172] is 8%; for `Cc1ncc(C(=O)Nc2cc(C(C)(C)C)on2)cc1-n1cc(-c2cncc(N3CCN(CC4CCCCC4)CC3)c2)nn1` [Example I-173] it is 2.4%; for `C=CCN1CCN(c2cncc(-c3cn(-c4cc(C(=O)Nc5cc(C(C)(C)C)on5)cnc4C)nn3)c2)CC1` [Example I-174] it is 8.1%.
As to `Cc1ncc(C(=O)Nc2cc(C(C)(C)C)on2)cc1-n1cc(-c2cncc(N3CCN(CCC#N)CC3)c2)nn1` [Example I-175], the remaining activity at 2 µM came to 8.1%.
The figure for `Cc1ncc(C(=O)Nc2cc(C(C)(C)C)on2)cc1-n1cc(-c2cncc(N3CCN(CC(=O)N(C)C)CC3)c2)nn1` [Example I-176] is 6.7%; for `Cc1ncc(C(=O)Nc2cc(C(C)(C)C)ncn2)cc1-n1cc(-c2cncc(N3CCN(C)CC3)c2)nn1` [Example I-177] it is 1.9%; for `Cc1ncc(C(=O)Nc2ccnc(C(C)(C)C)c2)cc1-n1cc(-c2cncc(N3CCN(C)CC3)c2)nn1` [Example I-178] it is 2.3%.
The figure for `Cc1ncc(C(=O)Nc2cc(C(C)(C)C)on2)cc1-n1cc(-c2cncc(N3CCN(CCO)CC3)c2)nn1` [Example I-179] is 2.6%.
With `Cc1ncc(C(=O)Nc2cc(C(C)(C)C)no2)cc1-n1cc(-c2cncc(N3CCN(C)CC3)c2)nn1` [Example I-180] the figure was 2.9%; with `Cc1ncc(C(=O)Nc2cc(C(C)(C)C)on2)cc1-n1cc(-c2cncc(N3CCN(CC(F)F)CC3)c2)nn1` [Example I-181], 2.3%; with `Cc1ncc(C(=O)Nc2cc(C(C)(C)C)on2)cc1-n1cc(-c2cncc(N3CCN(CC(F)(F)F)CC3)c2)nn1` [Example I-182], 2.1%.
Regarding `Cc1ncc(C(=O)Nc2cc(C(C)(C)C)on2)cc1-n1cc(-c2cncc(N3CCNCC3)c2)nn1` [Example I-183], the remaining activity at 2 µM was 1.8%.
The figure for `Cc1ncc(C(=O)Nc2cc(C(C)(C)C)on2)cc1-n1cc(-c2cncc(CN3CCOCC3)c2)nn1` [Example I-184] is 2.5%; for `Cc1ncc(C(=O)Nc2cc(C(C)(C)C)on2)cc1-n1cc(-c2cncc(CN3CCCC3)c2)nn1` [Example I-185] it is 1.7%; for `Cc1ncc(C(=O)Nc2cc(C(C)(C)C)on2)cc1-n1cc(-c2cncc(CN3CCN(C)CC3)c2)nn1` [Example I-186] it is 1.5%.
`Cc1ncc(C(=O)Nc2cc(C(C)(C)C)on2)cc1-n1cc(-c2cncc(CN(C)C)c2)nn1` [Example I-187]: the remaining activity at 2 µM was 4.1%.

(Values after patent US8778929B2, “Substituted heteroaryl inhibitors of B-RAF” (Boehringer Ingelheim International GmbH, priority 2008, dated 2014).)
